From paper PMC10141580, “Cyclic Dichalcogenides Extend the Reach of Bioreductive Prodrugs to Harness Thiol/Disulfide Oxidoreductases: Applications to seco-Duocarmycins Targeting the Thioredoxin System” (ACS Central Science, 2023)
Like-named read-outs stand apart in the source and are kept apart here.

How the values were obtained:
[1] = tested on: NCI-60 standardized human tumor cell line panel; assay: cells; type: cell-based; conditions: AZI sheet, read-out: GI50
[2] = tested on: HeLa-HRE cells; assay: Resazurin cytotoxicity assay, HeLa-HRE, 48 h; conditions: for IC50(HeLa)/IC50(A549): ratio HeLa vs A549; for IC50: read-out: IC50(nM): HeLa, HeLa, 48 h
Description: (§1) We used A549 lung cancer and HeLa cervical cancer cell lines for initial screening of the prodrugs.
HeLa-HRE cells were treated with prodrugs of the
Dose -response curves were calculated from at least 27 incremental single concentrations over a
range of at least three log units.

[3] = tested on: A549 cells; assay: Resazurin cytotoxicity assay, A549, 72 h; conditions: read-out: IC50(nM): A549
Description: as §1
Fi gure S9: Cell ular resazurin-based cytotoxi ci ty as s a y.
Dose -response curves were calculated from at least 27 incremental single concentrations over a range
of at least three log units. Individual experiments with annotated experiment numbers are shown for each prodrug

[4] = Cell-free HPLC reduction assay (GSH or TCEP challenge); conditions: 5 mM GSH (50 equiv), 24 h
Excerpt: These performance features had not been tested with naphthols, so we used HPLC to test them and show their reduction-based activation sequence (Figure 2c and Figures S4–S6).
In brief, treatment with the quantitative reductant TCEP triggered a reaction cascade matching the activation sequence we expected (Figure 2c): dichalcogenides are reduced to dichalcogenols that cyclize, giving the naphthol cargos (plus thiol trigger byproduct) that evolve to the activated cyclopropanes (Figure 5).
The mobile phase consists of eluent A: water (analytical
grade, 0.1% formic acid) and eluent B: MeCN (analytical grade, 0.1% formic acid).
using a gradient of 10% B t o 90% B over 10 min.
Reduction assay using TCEP and GSH
tris(2-carboxyethyl)phospine) (TCEP, 5 mM in TE-bu f f e r ) , or reduced glut at hione (GSH, 50 mM in TE-buf f er) or
else blank TE-buffer. Final concentrations: Prodrug (0.1 mM) , TCEP ( 0. 5 mM) , G SH ( 5 mM). The blank sample
was measured after 10 min (“pure”) and 24 h (“O H-“) to control for basic hydrolysis. The GSH sample was
measured after 24 h to control for monothiol-based reductive release. The TCEP sample was measured at several […]
extracted for each of the intermediate species and final r elease products. Peak areas were calculated relative to
the sum of all peak areas at 320 nm to quantify individual species at each timepoints. […]

[5] = tested on: mouse; assay: Tolerability for repeated dose administration in vivo (summary); conditions: for remarks: repeated dose administration
[6] = tested on: Balb/c mice; assay: Moderate repeated dosing tolerability study; type: in vivo
Description: Next, a moderate repeated dosing study in Balb/c mice (3 animals per group) tested the importance of solubilizing the prodrugs.
Methods for in vivo animal studies
All in vivo studies were conducted as contract research together with React ionBiology Eur ope G mbH (Freiburg,
Germany), EPO – Experimental Pharmacology & Oncology GmbH (Berlin, Germany); Bient a/ Enam ine Lt d. (Kyiv,
Ukraine) and Leit at – Managing Technologies (Barcelona, Spain), adhering to the respective animal welfare
Mice were kept in individually ventilated cages at constant temperature (22±2 °C, air-conditioned) and humidity (45
– 65%), under optimum hygienic conditions with 10 – 15 air changes per hour. A cycle of 12 h artificial fluorescent
light ning and 12 h darkness was applied , and animal behavior was monitored daily throughout the studies. The
animals received food and water ad libit um.
To evaluate toxicity of selected compounds, dose level selection studies within dose range from 0.1 mg/kg to
10 mg/kg were performed by intravenous administration into Balb /c mice. Each dose for each tested compound
was administered in one mouse.
changes and clinical signs of gross toxicity three tim es per week for 21 consecutive days of post-dosing period.
After the first week of observation without adverse events, two doses for each test compound were selected as
tolerated. These two doses were tested in two additional mice for confirmation of toler ability. Additional animals
consecutive days of post-dosing period. Toxicity of repeated administrations was tested wit h t hr ee repeat ed pr e-
selected doses at a dosing interval of 7 days. Mortality, body weight changes, and clinical signs of gross toxicity
were monitored after each drug administration and three times per week for 21 consecutive days after the first
compound administration. Bleed ing with subsequent hematological tests, clinical chemistry parameters analysis
(ALT, AST, ALP, LDH, creatine kinase, creatinine, urea, cholesterol, and triglycerides), and necropsy with
macroscopic inspection were performed on the terminal day of the repeated dosing-regime.
To test tolerability of selected compounds in vivo, female BALB/c mice were randomized by weight into seven
groups of t hree animals.

CN1CCN(C(=O)Oc2cc3c(c4ccccc24)C(CCl)CN3C(=O)c2cc3cc(OCCCN4CCC4)ccc3[nH]2)C2CSSCC21 (mixture of isomers) [Me-SS66C-CBI-AZI]
GI50 ([1]; 786-0): 0.0088 µM
GI50 ([1]; A498): 0.026 µM
GI50 ([1]; A549/ATCC): 0.005 µM
GI50 ([1]; ACHN): 0.002 µM
GI50 ([1]; BT-549): 0.054 µM
GI50 ([1]; CAKI-1): 0.0082 µM
GI50 ([1]; CCRF-CEM): 0.018 µM
GI50 ([1]; COLO 205): 0.022 µM
GI50 ([1]; DU-145): 0.0053 µM
GI50 ([1]; EKVX): 0.027 µM
GI50 ([1]; HCC-2998): 0.022 µM
GI50 ([1]; HCT-15): 0.011 µM
GI50 ([1]; HCT-116): 0.046 µM
GI50 ([1]; HL-60(TB)): 0.029 µM
GI50 ([1]; HOP-62): 0.0096 µM
GI50 ([1]; HOP-92): 0.053 µM
GI50 ([1]; HT29): 0.015 µM
GI50 ([1]; IGROV1): 0.0066 µM
GI50 ([1]; K-562): 0.017 µM
GI50 ([1]; KM12): 0.09 µM
GI50 ([1]; LOX IMVI): 0.0032 µM
GI50 ([1]; M14): 0.014 µM
GI50 ([1]; MALME-3M): 0.019 µM
GI50 ([1]; MCF7): 0.0015 µM
GI50 ([1]; MDA-MB-231): 0.0378 µM
GI50 ([1]; MDA-MB-435): 0.025 µM
GI50 ([1]; MDA-MB-468): 0.0053 µM
GI50 ([1]; MOLT-4): 0.014 µM
GI50 ([1]; NCI-H23): 0.0043 µM
GI50 ([1]; NCI-H226): 0.0069 µM
GI50 ([1]; NCI-H460): 0.0016 µM
GI50 ([1]; NCI-H522): 0.028 µM
GI50 ([1]; OVCAR-3): 0.051 µM
GI50 ([1]; OVCAR-4): 0.074 µM
GI50 ([1]; OVCAR-5): 0.023 µM
GI50 ([1]; OVCAR-8): 0.012 µM
GI50 ([1]; PC-3): 0.034 µM
GI50 ([1]; RPMI-8226): 0.035 µM
GI50 ([1]; RXF 393): 0.0042 µM
GI50 ([1]; SF-268): 0.02 µM
GI50 ([1]; SF-295): 0.0021 µM
GI50 ([1]; SF-539): 0.022 µM
GI50 ([1]; SK-MEL-2): 0.031 µM
GI50 ([1]; SK-MEL-5): 0.019 µM
GI50 ([1]; SK-MEL-28): 0.022 µM
GI50 ([1]; SK-OV-3): 0.03 µM
GI50 ([1]; SN12C): 0.012 µM
GI50 ([1]; SNB-19): 0.018 µM
GI50 ([1]; SR): 0.0027 µM
GI50 ([1]; SW-620): 0.018 µM
GI50 ([1]; T-47D): 0.015 µM
GI50 ([1]; TK-10): 0.036 µM
GI50 ([1]; U251): 0.0036 µM
GI50 ([1]; UACC-62): 0.0042 µM
GI50 ([1]; UACC-257): 0.034 µM
GI50 ([1]; UO-31): 0.012 µM
IC50(HeLa)/IC50(A549) [2]: 33
IC50 [2]: 400 nM
IC50 [3]: 12 nM
release/reduction on GSH challenge [4]: no disulfide reduction/prodrug release was indicated

CN1CCN(C(=O)CCN(C(=O)Oc2cc3c(c4ccccc24)[C@H](CCl)CN3C(=O)c2cc3cc(OCCCN4CCC4)ccc3[nH]2)[C@H]2CCSSC2)CC1 [P-SS60-CBI-AZI]
GI50 ([1]; 786-0): 0.33 µM
GI50 ([1]; A498): 0.2 µM
GI50 ([1]; A549/ATCC): 0.11 µM
GI50 ([1]; ACHN): 0.13 µM
GI50 ([1]; BT-549): 1 µM
GI50 ([1]; CAKI-1): 0.15 µM
GI50 ([1]; CCRF-CEM): 0.27 µM
GI50 ([1]; COLO 205): 0.43 µM
GI50 ([1]; DU-145): 0.17 µM
GI50 ([1]; EKVX): 0.35 µM
GI50 ([1]; HCC-2998): 0.15 µM
GI50 ([1]; HCT-15): 0.21 µM
GI50 ([1]; HCT-116): 0.23 µM
GI50 ([1]; HL-60(TB)): 0.39 µM
GI50 ([1]; HOP-62): 0.15 µM
GI50 ([1]; HOP-92): 1 µM
GI50 ([1]; HT29): 0.21 µM
GI50 ([1]; IGROV1): 0.54 µM
GI50 ([1]; K-562): 0.22 µM
GI50 ([1]; KM12): 0.31 µM
GI50 ([1]; LOX IMVI): 0.086 µM
GI50 ([1]; M14): 0.2 µM
GI50 ([1]; MALME-3M): 0.23 µM
GI50 ([1]; MCF7): 0.049 µM
GI50 ([1]; MDA-MB-231): 0.402 µM
GI50 ([1]; MDA-MB-435): 0.29 µM
GI50 ([1]; MDA-MB-468): 0.15 µM
GI50 ([1]; MOLT-4): 0.23 µM
GI50 ([1]; NCI-H23): 0.066 µM
GI50 ([1]; NCI-H226): 0.15 µM
GI50 ([1]; NCI-H460): 0.031 µM
GI50 ([1]; NCI-H522): 0.25 µM
GI50 ([1]; OVCAR-3): 0.43 µM
GI50 ([1]; OVCAR-4): 1.4 µM
GI50 ([1]; OVCAR-5): 0.39 µM
GI50 ([1]; OVCAR-8): 0.14 µM
GI50 ([1]; PC-3): 0.378 µM
GI50 ([1]; RPMI-8226): 0.57 µM
GI50 ([1]; RXF 393): 0.19 µM
GI50 ([1]; SF-268): 0.28 µM
GI50 ([1]; SF-295): 0.11 µM
GI50 ([1]; SF-539): 0.33 µM
GI50 ([1]; SK-MEL-2): 0.34 µM
GI50 ([1]; SK-MEL-5): 0.15 µM
GI50 ([1]; SK-MEL-28): 0.21 µM
GI50 ([1]; SK-OV-3): 0.31 µM
GI50 ([1]; SN12C): 0.53 µM
GI50 ([1]; SNB-19): 0.27 µM
GI50 ([1]; SR): 0.066 µM
GI50 ([1]; SW-620): 0.13 µM
GI50 ([1]; T-47D): 0.57 µM
GI50 ([1]; TK-10): 1.6 µM
GI50 ([1]; U251): 0.1 µM
GI50 ([1]; UACC-62): 0.11 µM
GI50 ([1]; UACC-257): 0.38 µM
GI50 ([1]; UO-31): 0.19 µM
IC50(HeLa)/IC50(A549) [2]: 8.9
IC50 [2]: 890 nM
remarks [5]: well tolerated
well-tolerated dose ([5]; weekly or twice-weekly administration): 3 mg/kg
IC50 [3]: 100 nM

CN(C(=O)Oc1cc2c(c3ccccc13)[C@H](CCl)CN2C(=O)c1cc2cc(OCCCN3CCC3)ccc2[nH]1)[C@H]1CCS[Se]C1 [SeS60-CBI-AZI]
IC50 ([2]; Homo sapiens): 49 nM
IC50(HeLa)/IC50(A549) [2]: 0.8
remarks [5]: adverse effects
IC50 ([3]; Homo sapiens): 60 nM
outcome of repeated dosing at 3 mg/kg ([6]; once weekly): significant loss of body weight
outcome of repeated dosing at 1 mg/kg ([6]; treated twice a week): still caused adverse effects
